# Reference: patent US20240182445A1 (ONO PHARMACEUTICAL CO., LTD., priority 2019, published 2024)
# Biological target: T1, human TREK-1 (Homo sapiens, UniProt O95069)
# T1 construct: expressed in transfected cells
# T1 sequence (O95069 1-426): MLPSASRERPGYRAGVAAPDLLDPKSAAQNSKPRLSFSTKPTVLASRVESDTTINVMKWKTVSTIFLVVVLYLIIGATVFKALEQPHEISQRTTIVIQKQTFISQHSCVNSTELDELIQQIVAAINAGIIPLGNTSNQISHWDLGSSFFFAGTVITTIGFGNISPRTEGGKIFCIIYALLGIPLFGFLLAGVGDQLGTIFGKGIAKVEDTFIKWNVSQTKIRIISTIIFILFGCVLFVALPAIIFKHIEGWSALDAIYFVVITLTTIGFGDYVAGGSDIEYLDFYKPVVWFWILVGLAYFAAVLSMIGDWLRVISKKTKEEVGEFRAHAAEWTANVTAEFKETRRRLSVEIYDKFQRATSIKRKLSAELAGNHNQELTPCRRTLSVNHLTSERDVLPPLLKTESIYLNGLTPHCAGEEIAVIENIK
# Assay: TREK-1 Thallium (Tl+) flux assay, Method 1
# Format: cell-based
# Conditions: TREK-1 Thallium (Tl+) flux assay, Method 1
# Outline: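 Readout: Thallos fluorescence ratio, taken 25 s post-thallium relative to the pre-thallium baseline average, then converted to % inhibition. Cells were CHO-K1 stably expressing human TREK-1, dye-loaded and exposed to test compound (vehicle 0.3% DMSO) for 10 min prior to thallium stimulation.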
row,IC50 [nM],SMILES
1,4820,"CC(=O)N1CCOC(Cn2ncc(Cl)c2C(=O)Nc2ccc(OCc3ccccc3)cc2C)C1 (centres unmarked) [Compound 423, 1-((4-acetylmorpholin-2-yl)methyl)-N-(4-(benzyloxy)-2-methylphenyl)-4-chloro-1H-pyrazole-5-carboxamide]"
2,1680,"CCC(=O)N1CCC(n2ncc(Cl)c2C(=O)Nc2ccc(OCc3ccccc3)cc2C)CC1 [Compound 397, N-(4-(benzyloxy)-2-methylphenyl)-4-chloro-1-(1-propionylpiperidin-4-yl)-1H-pyrazole-5-carboxamide]"

# Same assay, conditions: TREK-1 Thallium (Tl+) flux assay; no *^12 (Method 2) mark on these rows
row,IC50 [nM],SMILES
1,480,"O=C(Nc1ncc(C#Cc2ccccc2)cc1F)c1c(Cl)cnn1[C@H]1CCOC1 [Compound 275, (S)-4-chloro-N-(3-fluoro-5-(phenylethynyl)pyridin-2-yl)-1-(tetrahydrofuran-3-yl)-1H-pyrazole-5-carboxamide]"
2,740,"Cc1cc(C#Cc2ccccc2)cnc1NC(=O)c1c(Cl)cnn1CC1CC(C)OC(C)C1 (centres unmarked) [Compound 340, 4-chloro-1-((2,6-dimethyltetrahydro-2H-pyran-4-yl)methyl)-N-(3-methyl-5-(phenylethynyl)pyridin-2-yl)-1H-pyrazole-5-carboxamide]"
3,870,"Cc1cc(C#Cc2ccccc2)cnc1NC(=O)c1c(Cl)cnn1[C@H]1C[C@@H](NC(=O)OC(C)(C)C)C1 [Compound 357, tert-butyl (cis-3-(4-chloro-5-((3-methyl-5-(phenylethynyl)pyridin-2-yl)carbamoyl)-1H-pyrazol-1-yl)cyclobutyl)carbamate]"
4,570,"Cc1cc(C#Cc2ccc(F)cc2)cnc1NC(=O)c1c(Cl)cnn1C1CCN(C(=O)C(C)C)C1 (centres unmarked) [Compound 305, 4-chloro-N-(5-((4-fluorophenyl)ethynyl)-3-methylpyridin-2-yl)-1-(1-isobutyrylpyrrolidin-3-yl)-1H-pyrazole-5-carboxamide]"
5,540,"Cc1cc(C#Cc2ccccc2)cnc1NC(=O)c1c(Cl)cnn1[C@H]1CCN(C(=O)OC(C)(C)C)C1 [Compound 298, tert-butyl (S)-3-(4-chloro-5-((3-methyl-5-(phenylethynyl)pyridin-2-yl)carbamoyl)-1H-pyrazol-1-yl)pyrrolidine-1-carboxylate]"
6,300,"CC(=O)N1CCC(C(C)n2ncc(Cl)c2C(=O)Nc2ncc(C#Cc3ccccc3)cc2C)CC1 (single isomer, unassigned) [Compound 197, 1-[(1R)-1-(1-acetylpiperidin-4-yl)ethyl]-4-chloro-N-[3-methyl-5-(phenylethynyl)pyridin-2-yl]-1H-pyrazole-5-carboxamide or 1-[(1S)-1-(1-acetylpiperidin-4-yl)ethyl]-4-chloro-N-[3-methyl-5-(phenylethynyl)pyridin-2-yl]-1H-pyrazole-5-carboxamide]"

# The next lines start with the molecule.
row,SMILES,IC50 [nM]
1,"Cc1cc(-c2cnn(-c3ccc(F)cc3)c2)cnc1NC(=O)c1c(Cl)cnn1CC1(C#N)CC1 [Compound 389, 4-chloro-1-((1-cyanocyclopropyl)methyl)-N-(5-(1-(4-fluorophenyl)-1H-pyrazol-4-yl)-3-methylpyridin-2-yl)-1H-pyrazole-5-carboxamide]",1210
2,"Cc1cc(OCc2ccccc2)ccc1NC(=O)c1c(Cl)cnn1[C@H]1CC[C@@H](NC(=O)CC(C)C)CC1 [Compound 382, N-(4-(benzyloxy)-2-methylphenyl)-4-chloro-1-(cis-4-(3-methylbutanamido)cyclohexyl)-1H-pyrazole-5-carboxamide]",610
3,"Cc1cc(OCc2ccccc2)ccc1NC(=O)c1c(Cl)cnn1[C@H]1CC[C@@H](NC(=O)C2COCCO2)CC1 (stereo partly drawn) [Compound 380, 1-(cis-4-(1,4-dioxane-2-carboxamido)cyclohexyl)-N-(4-(benzyloxy)-2-methylphenyl)-4-chloro-1H-pyrazole-5-carboxamide]",380
4,"Cc1cc(C#Cc2ccc(F)cc2)cnc1NC(=O)c1c(Cl)cnn1C1CC2(CCN(C(=O)C3CC3)C2)C1 (single isomer, unassigned) [Compound 363, 4-chloro-1-[(2s,4r)-6-(cyclopropanecarbonyl)-6-azaspiro[3.4]octan-2-yl]-N-{5-[(4-fluorophenyl)ethynyl]-3-methylpyridin-2-yl}-1H-pyrazole-5-carboxamide or 4-chloro-1-[(2r,4s)-6-(cyclopropanecarbonyl)-6-azaspiro[3.4]octan-2-yl]-N-{5-[(4-fluorophenyl)ethynyl]-3-methylpyridin-2-yl}-1H-pyrazole-5-carboxamide]",910
5,"O=C(Nc1ncc(C#Cc2cccs2)cc1F)c1c(Cl)cnn1CCC1CCN(C(=O)C2COCCO2)CC1 (centres unmarked) [Compound 206, 1-(2-(1-(1,4-dioxane-2-carbonyl)piperidin-4-yl)ethyl)-4-chloro-N-(3-fluoro-5-(thiophen-2-ylethynyl)pyridin-2-yl)-1H-pyrazole-5-carboxamide]",310
6,"CC(=O)N1CC2CC(C1)C2Cn1ncc(Cl)c1C(=O)Nc1ncc(C#Cc2ccccc2)cc1C (centres unmarked) [Compound 370, 1-((3-acetyl-3-azabicyclo[3.1.1]heptan-6-yl)methyl)-4-chloro-N-(3-methyl-5-(phenylethynyl)pyridin-2-yl)-1H-pyrazole-5-carboxamide]",980
7,"Cc1cc(C#Cc2ccccc2)cnc1NC(=O)c1c(Cl)cnn1C[C@H]1C[C@@H]2CC[C@H]1O2 (racemic) [Compound 259, 4-chloro-N-[3-methyl-5-(phenylethynyl)pyridin-2-yl]-1-{[(1S,2S,4R)-7-oxabicyclo[2.2.1]heptan-2-yl]methyl}-1H-pyrazole-5-carboxamide and 4-chloro-N-[3-methyl-5-(phenylethynyl)pyridin-2-yl]-1-{[(1R,2R,4S)-7-oxabicyclo[2.2.1]heptan-2-yl]methyl}-1H-pyrazole-5-carboxamide]",430
8,"Cc1cc(C#Cc2ccc(F)cc2)cnc1NC(=O)c1c(Cl)cnn1CC1(F)CCN(C(=O)C2CC2C)CC1 (centres unmarked) [Compound 348, 4-chloro-1-((4-fluoro-1-(2-methylcyclopropane-1-carbonyl)piperidin-4-yl)methyl)-N-(5-((4-fluorophenyl)ethynyl)-3-methylpyridin-2-yl)-1H-pyrazole-5-carboxamide]",780

# Same assay, conditions: TREK-1 Thallium (Tl+) flux assay; values without footnote *12 are Method 1
row,IC50 [nM],SMILES
1,180,"CC(=O)N1CC(Cn2ncc(Cl)c2C(=O)Nc2ncc(C#Cc3ccccc3)cc2F)C1 [Compound 93, 1-((1-acetylazetidin-3-yl)methyl)-4-chloro-N-(3-fluoro-5-(phenylethynyl)pyridin-2-yl)-1H-pyrazole-5-carboxamide]"
2,220,"O=C(Nc1ncc(C#Cc2ccccc2)cc1F)c1c(Cl)cnn1C1CCN(C(=O)C2CC2)CC1 [Compound 130, 4-chloro-1-(1-(cyclopropanecarbonyl)piperidin-4-yl)-N-(3-fluoro-5-(phenylethynyl)pyridin-2-yl)-1H-pyrazole-5-carboxamide]"
3,290,"CC(=O)N1CCC(Cn2ncc(Cl)c2C(=O)Nc2ncc(C#Cc3ccccc3)cc2F)C(F)(F)C1 (centres unmarked) [Compound 192, 1-((1-acetyl-3,3-difluoropiperidin-4-yl)methyl)-4-chloro-N-(3-fluoro-5-(phenylethynyl)pyridin-2-yl)-1H-pyrazole-5-carboxamide]"
4,170,"CC(=O)N1CCC(Cn2ncc(Cl)c2C(=O)Nc2ncc(C#Cc3ccccc3)cc2C)CC1 [Compound 85, 1-((1-acetylpiperidin-4-yl)methyl)-4-chloro-N-(3-methyl-5-(phenylethynyl)pyridin-2-yl)-1H-pyrazole-5-carboxamide]"

# The remaining lines, values behind:
row,SMILES,IC50 [nM]
1,"Cc1cc(C#Cc2cccs2)cnc1NC(=O)c1c(Cl)cnn1C1CCN(C(=O)C2CC2)CC1 [Compound 63, 4-chloro-1-(1-(cyclopropanecarbonyl)piperidin-4-yl)-N-(3-methyl-5-(thiophen-2-ylethynyl)pyridin-2-yl)-1H-pyrazole-5-carboxamide]",150
2,"O=C(Nc1ncc(C#Cc2cccs2)cc1F)c1c(Cl)cnn1C1CCN(C(=O)C2COCCO2)CC1 (centres unmarked) [Compound 95, 1-(1-(1,4-dioxane-2-carbonyl)piperidin-4-yl)-4-chloro-N-(3-fluoro-5-(thiophen-2-ylethynyl)pyridin-2-yl)-1H-pyrazole-5-carboxamide]",180
3,"Cc1cc(C#Cc2ccccc2)cc(F)c1NC(=O)c1c(Cl)cnn1[C@H]1CCOC1 [Compound 157, (S)-4-chloro-N-(2-fluoro-6-methyl-4-(phenylethynyl)phenyl)-1-(tetrahydrofuran-3-yl)-1H-pyrazole-5-carboxamide]",250
4,"N#CC1(Cn2ncc(Cl)c2C(=O)Nc2c(F)cc(C#Cc3ccccc3)cc2F)CC1 [Compound 168, 4-chloro-1-((1-cyanocyclopropyl)methyl)-N-(2,6-difluoro-4-(phenylethynyl)phenyl)-1H-pyrazole-5-carboxamide]",270
5,"Cc1cc(C#Cc2cccs2)cnc1NC(=O)c1c(Cl)cnn1CC1CCN(C(=O)C2CC2)CC1 [Compound 57, 4-chloro-1-((1-(cyclopropanecarbonyl)piperidin-4-yl)methyl)-N-(3-methyl-5-(thiophen-2-ylethynyl)pyridin-2-yl)-1H-pyrazole-5-carboxamide]",140

# Same assay, conditions: read-out: Tl^+ Assay % inhibition at 30 uM (Minus value indicates activation of TREK-1); at 30 uM; CHO-K1 cells stably expressing human TREK-1; minus = activation
row,inhibition at 30 µM [%],SMILES
1,-99,"Cc1cc(C#Cc2ccccc2)cnc1NC(=O)c1nn(CC2COCCO2)cc1Cl (centres unmarked) [Compound 449, 1-((1,4-dioxan-2-yl)methyl)-4-chloro-N-(3-methyl-5-(phenylethynyl)pyridin-2-yl)-1H-pyrazole-3-carboxamide]"
